Results as given in patent US7592160B2, “Processes for producing isomaltose and isomaltitol and use thereof” (Kabushiki Kaisha Hayashibara Seibutsu Kagaku Kenkyujo, priority 2001, dated 2009).

How the values were obtained:
[1] = system: α-isomaltosylglucosaccharide-forming enzyme; test: Influence of metal ions on α-isomaltosylglucosaccharide-forming enzyme activity (C9 strain); type: biochemical, Bacillus globisporus C9 strain; conditions: for effect on the enzyme activity, in words: 1 mM, Table 3; for Relative activity (%): in the presence of 1 mM of each metal-ion, None = 100
Experimental: (§1) About 20 L of a fresh preparation of the same liquid culture medium as used in the above seed culture were placed in a 30-L fermentor, sterilized by heating, and then cooled to 27° C. and inoculated with 1% (v/v) of the seed culture, followed by culturing at 27° C. and pH 6.0 to 8.0 for 48 hours under aeration-agitation conditions. […] These activities were assayed as follows: The activity of α-isomaltosylglucosaccharide-forming enzyme was assayed by dissolving maltotriose in 100 mM acetate buffer (pH 6.0) to give a concentration of 2% (w/v) for a substrate solution, adding a 0.5 ml of an enzyme solution to a 0.5 ml of the substrate solution, enzymatically reacting the mixture solution at 35° C. for 60 min, suspending the enzymatic reaction by boiling the solution for 10 min, and quantifying maltose, among the isomaltosyl maltose and maltose formed mainly in the reaction mixture, on HPLC disclosed in Experiment 1. One unit activity of α-isomaltosylglucosaccharide-forming enzyme is defined as the enzyme amount that forms one micromole of maltose per minute under the above enzymatic reaction conditions. Throughout the specification, the enzymatic activity of α-isomaltosylglucosaccharide-forming enzyme means the unit(s) assayed as above.
(§2) The influence of metal ions on the activity of α-isomaltosylglucosaccharide-forming enzyme was examined in the presence of 1 mM of each metal-ion according to the assay for its enzyme activity.

[2] = system: α-isomaltosyl-transferring enzyme; test: Influence of metal ions on α-isomaltosyl-transferring enzyme activity (C9 strain); type: biochemical, Bacillus globisporus C9 strain; conditions: for Relative activity (%): in the presence of 1 mM of each metal-ion, None = 100; for effect on the enzyme activity, in words: 1 mM, Table 4
Experimental: (§3) The activity of α-isomaltosyl-transferring enzyme was assayed by dissolving panose in 100 mM acetate buffer (pH 6.0) to give a concentration of 2% (w/v) for a substrate solution, adding a 0.5 ml of an enzyme solution to 0.5 ml of the substrate solution, enzymatically reacting the mixture solution at 35° C. for 30 min, suspending the enzymatic reaction by boiling the solution for 10 min, and quantifying glucose, among the cyclotetrasaccharide and glucose formed mainly in the reaction mixture, by the glucose oxidase method. One unit activity of α-isomaltosyl-transferring enzyme is defined as the enzyme amount that forms one micromole of glucose per minute under the above enzymatic reaction conditions. Throughout the specification, the enzymatic activity of α-isomaltosyl-transferring enzyme means the unit(s) assayed as above.
(§4) The influence of metal ions on the activity of α-isomaltosyl-transferring enzyme was examined in the presence of 1 mM of each metal-ion according to the assay for its enzyme activity.

[3] = system: α-isomaltosylglucosaccharide-forming enzyme; test: Influence of metal ions on α-isomaltosylglucosaccharide-forming enzyme activity (C11 strain); type: biochemical, Bacillus globisporus C11 strain; conditions: for effect on the enzyme activity, in words: 1 mM, Table 7; for Relative activity (%): in the presence of 1 mM of each metal-ion, None = 100
[4] = system: α-isomaltosyl-transferring enzyme; test: Influence of metal ions on α-isomaltosyl-transferring enzyme activity (C11 strain); type: biochemical, Bacillus globisporus C11 strain; conditions: for Relative activity (%): in the presence of 1 mM of each metal-ion, None = 100; for effect on the enzyme activity, in words: 1 mM, text on Table 8
Experimental: as §3, §4

[5] = system: α-isomaltosylglucosaccharide-forming enzyme; test: Influence of metal ions on α-isomaltosylglucosaccharide-forming enzyme activity (N75 strain); type: biochemical, Bacillus globisporus N75 strain; conditions: for Relative activity (%): in the presence of 1 mM of each metal-ion, None = 100; for effect on the enzyme activity, in words: 1 mM, Table 13
Experimental: as §1, §2

[6] = system: α-isomaltosyl-transferring enzyme; test: Influence of metal ions on α-isomaltosyl-transferring enzyme activity (N75 strain); type: biochemical, Bacillus globisporus N75 strain; conditions: for Relative activity (%): in the presence of 1 mM of each metal-ion, None = 100; for effect on the enzyme activity, in words: 1 mM, Table 14
Experimental: as §3
The influence of temperature and pH on the activity of α-isomaltosyl-transferring enzyme was examined in accordance with the assay for its enzyme activity. […] The thermal stability of the enzyme was determined by incubating the testing enzyme solutions in the form of 20 mM acetate buffer (pH 6.0) at prescribed temperatures for 60 min, cooling the resulting enzyme solutions with water, and assaying the remaining enzyme activity of each solution. The pH stability of the enzyme was determined by keeping the testing enzyme solutions in the from of 50 mM buffers having prescribed pHs at 4° C. for 24 hours, adjusting the pH of each solution to 6.0, and assaying the remaining enzyme activity of each solution. […] The influence of metal ions on the activity of α-isomaltosyl-transferring enzyme was examined in the presence of 1 mM of each metal-ion according to the assay for its enzyme activity.

[7] = system: α-isomaltosylglucosaccharide-forming enzyme; test: Influence of metal ions on α-isomaltosylglucosaccharide-forming enzyme activity (A19 strain); type: biochemical, Arthrobacter globiformis A19 strain; conditions: for Relative activity (%): in the presence of 1 mM of each metal-ion, None = 100; for effect on the enzyme activity, in words: 1 mM, Table 19
[8] = system: α-isomaltosyl-transferring enzyme; test: Influence of metal ions on α-isomaltosyl-transferring enzyme activity (S1 strain); type: biochemical, Arthrobacter ramosus S1 strain; conditions: for Relative activity (%): in the presence of 1 mM of each metal-ion, None = 100; for effect on the enzyme activity, in words: 1 mM, Table 21
Experimental: as §3, §4

Compound | effect on the enzyme activity, in words [1] | Relative activity (%) [1] [%] | Relative activity (%) [2] [%] | effect on the enzyme activity, in words [3] | Relative activity (%) [3] [%] | Relative activity (%) [4] [%] | Relative activity (%) [5] [%] | Relative activity (%) [6] [%] | Relative activity (%) [7] [%] | Relative activity (%) [8] [%] | effect on the enzyme activity, in words [2] | effect on the enzyme activity, in words [4] | effect on the enzyme activity, in words [5] | effect on the enzyme activity, in words [6] | effect on the enzyme activity, in words [8] | effect on the enzyme activity, in words [7] | Relative activity (%) ([4]; listed as Fe^3+) | Relative activity (%) ([6]; listed as Fe^3+) | Relative activity (%) ([7]; listed as Fe^3+) | Relative activity (%) ([8]; listed as Fe^3+)
[Ba+2] [Ba^2+] | also inhibited | 65 | 102 | also inhibited | 65 | 90 | 84 | 102 | 99 | 97 | – | – | – | – | – | – | – | – | – | –
[Ca+2] [Ca^2+] | activated | 115 | 101 | activated | 109 | 91 | 108 | 100 | 106 | 103 | not activated | not activated | activated | not activated | neither activated | – | – | – | – | –
[Co+2] [Co^2+] | – | 100 | 103 | – | 96 | 89 | 93 | 92 | 93 | 91 | – | – | – | – | – | – | – | – | – | –
[Cu+2] [Cu^2+] | strongly inhibited | 15 | 57 | strongly inhibited | 23 | 56 | 7 | 15 | 0 | 2 | also inhibited | also inhibited | strongly inhibited | also inhibited | also inhibited | strongly inhibited | – | – | – | –
O=C(O)CN(CCN(CC(=O)O)CC(=O)O)CC(=O)O [EDTA, ethylenediaminetetraacetic acid] | strongly inhibited | 20 | 104 | strongly inhibited | 24 | 98 | 35 | 92 | 2 | 91 | not inhibited | not inhibited | strongly inhibited | not inhibited | neither activated | strongly inhibited | – | – | – | –
[Hg+2] [Hg^2+] | strongly inhibited | 4 | 1 | strongly inhibited | 4 | 2 | 1 | 0.5 | 0 | 0.1 | strongly inhibited | strongly inhibited | strongly inhibited | strongly inhibited | strongly inhibited | strongly inhibited | – | – | – | –
[Pb+2] [Pb^2+] | – | 103 | 89 | – | 101 | 74 | 86 | 69 | 43 | 85 | – | – | – | – | – | – | – | – | – | –

The remaining lines, values ahead:

effect on the enzyme activity, in words [1] | Relative activity (%) [1] [%] | Relative activity (%) [2] [%] | effect on the enzyme activity, in words [3] | Relative activity (%) [3] [%] | Relative activity (%) [4] [%] | Relative activity (%) [5] [%] | Relative activity (%) [6] [%] | Relative activity (%) [7] [%] | Relative activity (%) [8] [%] | effect on the enzyme activity, in words [2] | effect on the enzyme activity, in words [4] | effect on the enzyme activity, in words [5] | effect on the enzyme activity, in words [6] | effect on the enzyme activity, in words [8] | effect on the enzyme activity, in words [7] | Relative activity (%) ([4]; listed as Fe^3+) | Relative activity (%) ([6]; listed as Fe^3+) | Relative activity (%) ([7]; listed as Fe^3+) | Relative activity (%) ([8]; listed as Fe^3+) | Compound
– | – | – | – | – | – | 82 | – | 36 | – | – | – | – | – | – | – | 88 | 90 | 35 | 75 | [Fe+2] [Fe^2+]
also inhibited | 80 | 101 | also inhibited | 83 | 93 | 85 | 91 | 102 | 101 | – | – | – | – | – | – | – | – | – | – | [Sr+2] [Sr^2+]
– | 92 | 88 | – | 91 | 83 | 82 | 75 | 56 | 78 | – | – | – | – | – | – | – | – | – | – | [Zn+2] [Zn^2+]
